Experimental data taken from patent publication US10039729B2, “Use of kukoamine A and kukoamine B” (Tianjin Chase Sun Pharmaceutical Co., Ltd., priority 2010, dated 2018).

Assays:
[1] = tested on: murine peritoneal macrophages; assay: Release of TNF-α and IL-6 in murine peritoneal macrophages induced by LPS and CpG DNA (ELISA); type: cell-based, KM mice; conditions: 50, 100 and 200 μM, TNF-α at 4 h, IL-6 at 12 h
Description: Separation and culture of murine peritoneal macrophages: KM mice were killed by cervical dislocation and immediately immersed in 75% ethanol for skin degerming; then abdominal skin was aseptically cut open; precooling DMEM cell culture medium was slowly injected in exposed peritoneum with a 5 ml syringe; murine abdomen was gently massaged for sufficient cell collection; subsequently, DMEM was withdrew, transferred into 10 ml centrifuge tube, centrifuged at 500 rpm for 5 min, resuspended in DMEM supplemented with 10% (v/v) NCS, transferred into cell culture bottle, and then cultured at 37° C. in a 5% CO2 humidified incubator for 2 h; culture medium was replaced with fresh culture medium to remove unattached cells; over 95% of the remained cells were murine peritoneal macrophages, which continued to be cultured and proliferated.
(§1) Loading and detection: According to the method in embodiment 6, KB and PMB were separately diluted in DMEM supplemented with 10% (v/v) NCS and transferred into culture medium of […] to achieved final concentrations of 50, 100 and 200 μM; RAW264.7 cells continued to be incubated; the supernatant was collected four hours later for TNF-α detection; the supernatant at were collected 12 hours later for IL-6 detection; the concentration of TNF-α and IL-6 of each group was detected according to the manufacturer's instructions of ELISA kit; result was expressed by means of mean±standard deviation.

RAW264.7 cells = assay: Release of TNF-α and IL-6 in RAW264.7 cells induced by LPS and CpG DNA (ELISA); type: cell-based, murine; conditions: for release of TNF-α induced by CpG DNA / release of TNF-α induced by LPS: 0, 50 and 100 ng/ml, 4 h, p<0.01
Description: 6.1 Methods: RAW264.7 cells were diluted to 1×10^6/ml in DMEM supplemented with 10% (v/v) NCS, added into 96-well plates (200 μl per well), and cultured at 37° C. in a 5% CO2 humidified incubator for 4 h until cells adhere to the wall; culture medium were replaced with fresh culture medium, added with KA and KB (final concentrations of 0, 50 and 100 ng/ml), and added with LPS (final concentration of 100 ng/ml) and CpG DNA (final concentration of 10 μg/ml); at the same time, medium group without any reagent was established; subsequently, RAW264.7 cells were incubated for 4 h; and the supernatant was collected for further detection; detection of the TNF-α concentration was performed according to the manufacturer's instructions of ELISA kit. Result was expressed by means of mean±standard deviation.
12.1 Methods: According to the method in embodiment 6, KB was dissolved in DMEM supplemented with 10% (v/v) NCS, subsequently transferred into Culture medium of RAW264.7 cells to achieved final concentrations of 100 and 200 μM, added with LPS (final concentration of 100 ng/ml) and CpG DNA (final concentration of 10 μg/ml), incubated for 24 h, and then collected supernatant; the concentration of TNF-α and IL-6 of each group was detected according to the manufacturer's instructions of ELISA kit; result was expressed by means of mean±standard deviation.
as §1, with “13.1 Methods: According” for “Loading and detection: According”, “separately dissolved” for “separately diluted”, “(v/v) NCS, subsequently” for “(v/v) NCS and”, “200 μM, and then added with LPS (final concentration of 100 ng/ml) and CpG DNA (final concentration of 10 μg/ml);” for “200 μM;”, “supernatant were” for “supernatant was”, “supernatant” for “supernatant at”
17.1 Methods: RAW264.7 cells was diluted to 1×10^6/ml in DMEM supplemented with 10% (v/v) NCS, transferred into 96-well plates (200 μl per well) and cultured at 37° C. in a 5% CO2 humidified incubator for 4 h.
(1) Observation of dose-dependent effects: For the purpose of experiment a medium group and a KB treatment group were established; each group included three repeated wells; medium group was added with no reagent; KB treatment group was added with KB (final concentrations of 12.5, 25, 50, 100 and 200 μM) in each well, and subsequently added with LPS (final concentration of 100 ng/ml) or CpG DNA (final concentration of 10 μg/ml); cells were cultured at 37° C. in a 5% CO2 humidified incubator for 12 h; the supernatant was collected for further detection; operations were performed according to the manufacturer's instructions of ELISA kit, and the result was expressed by means of mean±standard deviation.
(2) Observation of time-dependent effects: For the purpose of experiment a medium group, a stimulation group and a KB treatment group were established; each group contained three repeated wells; medium group was added with no reagent; stimulation group was added with LPS and CpG DNA; KB treatment group was added with LPS and CpG DNA, in the meantime added with KB (final concentration of 200 μM); cells continued to be cultured at 37° C. in a 5% CO2 humidified incubator; the supernatant at time point of 0, 2, 4, 8, 12 and 24 h after stimulation was separately collected for further detection; detection of TNF-α concentration was performed according to the manufacturer's instructions of ELISA kit, and the result was expressed by means of mean±standard deviation.
18.1 Methods: RAW264.7 cells were diluted to 1×10^6/ml in DMEM supplemented with 10% (v/v) NCS, transferred into 96-well plates (200 μl per well) and cultured at 37° C. in a 5% CO2 humidified incubator for 4 h. […]

[2] = 50, 100 and 200 μM, CpG DNA 10 μg/ml, TNF-α at 4 h, IL-6 at 12 h
[3] = 50, 100 and 200 μM, LPS 100 ng/ml, TNF-α at 4 h, IL-6 at 12 h
[4] = CpG DNA 10 μg/ml, dose-dependent

polymyxin B [PMB, reference compound]
release of TNF-α and IL-6 induced by CpG DNA [1]: can only inhibit the release of TNF-α and IL-6 induced by LPS
release of TNF-α and IL-6 induced by LPS [1]: inhibit the release of TNF-α and IL-6
release of TNF-α and IL-6 induced by CpG DNA (RAW264.7 cells; [2]): can only inhibit the release of TNF-α and IL-6 induced by LPS
release of TNF-α and IL-6 induced by LPS (RAW264.7 cells; [3]): inhibit the release of TNF-α and IL-6

O=C(CCc1ccc(O)c(O)c1)NCCCNCCCCNCCCNC(=O)CCc1ccc(O)c(O)c1 [KA, Kukoamine A]
release of TNF-α induced by CpG DNA (RAW264.7 cells; [4]): inhibit the release of TNF-α
release of TNF-α induced by LPS (RAW264.7 cells; LPS 100 ng/ml, dose-dependent): inhibit the release of TNF-α

NCCCN(CCCCNCCCNC(=O)CCc1ccc(O)c(O)c1)C(=O)CCc1ccc(O)c(O)c1 [KB, Kukoamine B]
release of TNF-α and IL-6 induced by CpG DNA [1]: inhibit the release of TNF-α and IL-6
release of TNF-α and IL-6 induced by LPS [1]: inhibit the release of TNF-α and IL-6
release of TNF-α induced by CpG DNA (RAW264.7 cells; [4]): inhibit the release of TNF-α
release of TNF-α induced by LPS (RAW264.7 cells; LPS 100 ng/ml, dose-dependent): inhibit the release of TNF-α
release of TNF-α and IL-6 induced by CpG DNA (RAW264.7 cells; [2]): inhibit the release of TNF-α and IL-6
release of TNF-α and IL-6 induced by LPS (RAW264.7 cells; [3]): inhibit the release of TNF-α and IL-6
release of TNF-α and IL-6 induced by CpG DNA (RAW264.7 cells; 100 and 200 μM, CpG DNA 10 μg/ml, 24 h): inhibit the release of TNF-α and IL-6
release of TNF-α and IL-6 induced by LPS (RAW264.7 cells; 100 and 200 μM, LPS 100 ng/ml, 24 h): inhibit the release of TNF-α and IL-6
difference of RAW264.7 cells activation (TNF-α release) vs CpG DNA group (RAW264.7 cells; KB 12.5 μM, CpG DNA 10 μg/ml, 12 h, p>0.05): no statistic significance
difference of RAW264.7 cells activation (TNF-α release) vs LPS group (RAW264.7 cells; KB 12.5 μM, LPS 100 ng/ml, 12 h, p>0.05): no statistic significance
inhibitory activity on TNF-α release induced by CpG DNA (RAW264.7 cells; KB 25 μM and above, CpG DNA 10 μg/ml, 12 h, p<0.05 or p<0.01, dose-dependent): significantly increased
inhibitory activity on TNF-α release induced by LPS (RAW264.7 cells; KB 25 μM and above, LPS 100 ng/ml, 12 h, p<0.05 or p<0.01): significantly increased
TNF-α release, KB added before vs at the time of stimulation (RAW264.7 cells; KB 200 μM added 40 or 20 min before vs at 0 min, LPS 200 ng/ml or CpG DNA 20 μg/ml): no significant difference
TNF-α levels in supernatant at various time points, CpG DNA (RAW264.7 cells; KB 200 μM, CpG DNA 10 μg/ml, 0, 2, 4, 8, 12 and 24 h): all decreased
release of TNF-α and IL-6 induced by LPS and CpG DNA (RAW264.7 cells; KB 200 μM, LPS 100 ng/ml, CpG DNA 10 μg/ml, selectivity panel): can only inhibit the release of TNF-α and IL-6 induced by LPS and CpG DNA
TNF-α levels in supernatant at various time points, LPS (RAW264.7 cells; KB 200 μM, LPS 100 ng/ml, 0, 2, 4, 8, 12 and 24 h): all decreased
antagonistic effect on other irritant (Pam3CSK4, Poly I:C, TNF-α, IL-1β) (RAW264.7 cells; KB 200 μM, Pam3CSK4 10 μg/ml, Poly I:C 20 μg/ml, TNF-α 50 ng/ml, IL-1β 50 ng/ml): no antagonistic effect on other irritant
release of TNF-α induced by LPS and CpG DNA under serum-free conditions (RAW264.7 cells; KB 50, 100 and 200 μM, serum-free DMEM, 12 h, dose-dependant): still inhibit the release of TNF-α
inhibition on TNF-α release induced by LPS and CpG DNA, KB preincubated with stimulus (RAW264.7 cells; KB preincubated with LPS or CpG DNA for 20 min or 40 min before loading, 12 h): significantly enhanced
